According to publication PMC7726444 (Frontiers in Pharmacology, 2020):
Like-named read-outs stand apart in the source and are kept apart here.

Tests used:
MAO-A [1] = target: T1, MAO-A (Homo sapiens, UniProt P21397); test: MAO-A enzymatic activity assay (MAO-A Inhibitor Screening Kit, fluorimetric detection of H2O2); assay type: biochemical; conditions: 25°C, 15 min kinetic read; mean (95% confidence interval), three experiments
T1 construct: purchased BioVision, Inc, Milpitas, CA
T1 sequence (P21397 1-527): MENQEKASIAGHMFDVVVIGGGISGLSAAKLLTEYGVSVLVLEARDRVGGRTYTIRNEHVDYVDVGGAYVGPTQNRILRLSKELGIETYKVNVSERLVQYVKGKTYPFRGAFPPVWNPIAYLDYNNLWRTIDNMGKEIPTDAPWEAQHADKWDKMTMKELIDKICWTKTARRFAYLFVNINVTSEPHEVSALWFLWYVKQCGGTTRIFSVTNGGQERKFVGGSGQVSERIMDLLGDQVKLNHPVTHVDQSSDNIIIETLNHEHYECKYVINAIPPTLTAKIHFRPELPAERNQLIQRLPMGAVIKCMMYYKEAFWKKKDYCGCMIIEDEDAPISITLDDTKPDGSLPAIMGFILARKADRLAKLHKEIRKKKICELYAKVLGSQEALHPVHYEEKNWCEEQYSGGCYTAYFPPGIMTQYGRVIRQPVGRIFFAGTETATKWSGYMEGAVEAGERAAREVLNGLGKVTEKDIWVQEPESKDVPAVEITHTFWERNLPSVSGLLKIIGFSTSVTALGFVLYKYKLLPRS
Description: The experiments were conducted following the manufacturer’s (BioVision, Inc, Milpitas, CA) instructions and were based on the fluorimetric detection of H2O2, a byproduct of the enzymatic activity of MAO-A, by measuring the fluorescence (Excitation/Emission at 535/587 nm) kinetically at 25°C for 15 min using a Tecan Spark plate reader (Tecan Group Ltd, Männedorf, Switzerland).
Relative inhibition of MAO-A was calculated as a percentage using the following Eq. 2: %Relative inhibition=((Slope of EC−Slope of S)/Slope of EC)×100 (2)
The slopes for all samples, either containing Enzyme Control (EC) or test substance (S), were calculated by dividing the net change in relative fluorescence units (ΔRFU; RFU2–RFU1) by the time interval (Δt; t2 –t1).

WT full-length TPH2 = target: T2, WT full-length TPH2 (Homo sapiens, UniProt Q8IWU9); test: Tryptophan hydroxylase enzymatic activity assay, WT full-length TPH2; assay type: biochemical; conditions: mean (95% confidence interval), three experiments in duplicate
T2 construct: both the doubly truncated TPH1 protein and WT full-length TPH2 protein; made in house
T2 sequence (Q8IWU9 1-490): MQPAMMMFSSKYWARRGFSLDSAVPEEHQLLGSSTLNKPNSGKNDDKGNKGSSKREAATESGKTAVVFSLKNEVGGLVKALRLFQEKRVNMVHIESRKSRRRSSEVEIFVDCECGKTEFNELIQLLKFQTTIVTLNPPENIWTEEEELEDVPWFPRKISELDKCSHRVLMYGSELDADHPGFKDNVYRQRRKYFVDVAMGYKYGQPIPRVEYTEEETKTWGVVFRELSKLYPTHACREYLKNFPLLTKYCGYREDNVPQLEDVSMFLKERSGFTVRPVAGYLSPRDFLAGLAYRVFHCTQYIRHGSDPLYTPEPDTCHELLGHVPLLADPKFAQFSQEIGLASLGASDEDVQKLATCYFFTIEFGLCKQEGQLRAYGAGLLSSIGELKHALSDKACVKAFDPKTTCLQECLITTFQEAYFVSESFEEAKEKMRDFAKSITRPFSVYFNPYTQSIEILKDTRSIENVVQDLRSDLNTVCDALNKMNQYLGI

[2] = target: T3, doubly truncated TPH1 (ΔNH102-ΔCOOH402) (Homo sapiens, UniProt P17752); test: Tryptophan hydroxylase enzymatic activity assay (HPLC quantification of 5-OH-Trp), doubly truncated TPH1; assay type: biochemical; conditions: for IC50: doubly truncated TPH1, 20 µM L-Trp, 200 µM BH4, 37°C, mean (95% confidence interval), three experiments in duplicate; for fold less potent inhibitor of TPH1 than omeprazole: relative to omeprazole TPH1 IC50; for reduction of TPH1 activity: 100 µM compound, preliminary activity assay
T3 construct: The ΔNH102-ΔCOOH402 human TPH1 gene was cloned; six-His (C); made in house
T3 sequence (P17752 102-402, stated change not applied): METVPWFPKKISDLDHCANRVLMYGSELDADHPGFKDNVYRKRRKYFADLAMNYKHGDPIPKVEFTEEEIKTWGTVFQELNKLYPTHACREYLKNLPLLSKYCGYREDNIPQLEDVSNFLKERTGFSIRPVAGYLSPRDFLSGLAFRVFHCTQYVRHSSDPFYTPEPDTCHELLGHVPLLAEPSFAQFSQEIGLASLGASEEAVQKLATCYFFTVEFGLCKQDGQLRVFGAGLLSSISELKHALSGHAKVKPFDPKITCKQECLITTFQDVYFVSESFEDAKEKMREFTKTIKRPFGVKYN

MAO-A [3] = target: T1, MAO-A; parameters: method as in Petzer et al., 2013; conditions: ref Petzer et al., 2013; cited from earlier work

Row | SMILES | IC50 (MAO-A [1]) | IC50 (WT full-length TPH2) | IC50 [2] | fold less potent inhibitor of TPH1 than omeprazole [2] | IC50 (MAO-A [3]) | reduction of TPH1 activity [2]
1 | Cc1c(OCC(F)(F)F)ccnc1C[S@@+]([O-])c1nc2ccccc2[nH]1 [(R)-lansoprazole] | 137 µM | 3.36 µM | 18.8 µM | 6 fold | – | –
2 | COc1ccc2nc([S@@+]([O-])Cc3ncc(C)c(OC)c3C)[nH]c2c1 [Esomeprazole] | 18 µM | 2.15 µM | 3.76 µM | – | 23 µM | –
3 | COc1ccnc(C[S+]([O-])c2nc3cc(-n4cccc4)ccc3[nH]2)c1C (stereo not drawn) [Ilaprazole] | 29 µM | 0.53 µM | – | – | – | –
4 | Cc1c(OCC(F)(F)F)ccnc1C[S+]([O-])c1nc2ccccc2[nH]1 (stereo not drawn) [Lansoprazole] | 251 µM | 5.21 µM | 24.6 µM | 6 fold | – | –
5 | COc1ccnc(C[S+]([O-])c2nc3ccc(OC(F)F)cc3[nH]2)c1OC (stereo not drawn) [Pantoprazole] | 462 µM | 8.2 µM | 21.7 µM | 6 fold | – | –
6 | COCCCOc1ccnc(C[S+]([O-])c2nc3ccccc3[nH]2)c1C (stereo not drawn) [Rabeprazole] | 12.8 µM | 2.13 µM | 7.57 µM | – | – | –
7 | COc1ccc2[nH]c([S+]([O-])Cc3ncc(C)c(OC)c3C)nc2n1 (stereo not drawn) [Tenatoprazole] | 29.2 µM | 4.9 µM | 2.16 µM | – | – | –
8 | CC1CCc2cc(F)cc3c(=O)c(C(=O)O)cn1c23 (stereo not drawn) [flumequine] | – | – | ~100 µM | – | – | more than 50%
9 | COC(=O)C1=C(C#N)NC(C)=C(C(=O)OC(C)C)C1c1cccc([N+](=O)[O-])c1 (stereo not drawn) [nilvadipine] | – | – | ~100 µM | – | – | more than 50%
10 | CSc1nc2cc(Cl)c(Oc3cccc(Cl)c3Cl)cc2[nH]1 [triclabendazole] | – | – | ~100 µM | – | – | more than 50%
